These are literature values, as cited in patent publication US7317012B2, “Bicyclic heterocycles as cannabinoind-1 receptor modulators” (Bristol-Myers Squibb Company, priority 2005, dated 2008).

For data set [1] the following is noted: human subjects, 16 week trial period.
For data set [2] the following is noted: chronic administration for two weeks.

Like-named read-outs stand apart in the source and are kept apart here.

Regarding `Cc1c(C(=O)NN2CCCCC2)nn(-c2ccc(Cl)cc2Cl)c1-c1ccc(Cl)cc1` [SR-141716], the body weight entry in data set [1] is “dose-dependently reduced body weight”.
On to `Cc1c(C(=O)NN2CCCCC2)nn(-c2ccc(Cl)cc2Cl)c1-c1ccc(I)cc1` [AM-251], for which the body weight entry in data set [2] is “substantial body weight reduction”.
